Laboratory results: paper PMC5889090 (Journal of medicinal chemistry, 2017)
Like-named read-outs stand apart in the source and are kept apart here.

How the values were obtained:
hERG ion channel = hERG ion channel (Homo sapiens, UniProt Q12809); experiment: cell-based
[1] = test system: zebrafish neuromast hair cells; experiment: Zebrafish neuromast hair cell protection assay; details: for protective activity (in words) / EC50: 200 μM neomycin; for eudismic ratio (ER): HC50 of the less active versus the more active enantiomer
E. coli ATCC25922 = experiment: Interference with neomycin MIC/MBC; assay type: cell-based
[2] = test system: five strains of P. aeruginosa; experiment: Interference with aminoglycoside MIC; assay type: cell-based
M. tuberculosis = experiment: Interference with amikacin MIC; assay type: cell-based
Air oxidation stability = assay type: physicochemical; details: oxidation to inactive, highly fluorescent byproduct
CYP = CYP stability / inhibition
[3] = Early / in vitro ADME profiling
[4] = In vitro toxicity against HepG2 cell line; details: human
Aqueous solubility = assay type: physicochemical
[5] = Preliminary i.v. toxicity and plasma half-life in rats; assay type: in vivo, rat
Sprague-Dawley rats = experiment: Rat ABR assay, kanamycin-induced hearing loss; details: kanamycin 500 mg/kg/day s.c. 14 days + compound 25 mg/kg/day i.p.
[6] = read-out: HC50, Tables 7, 8 and text, 50% hair cell protection

hERG ion channel, sequence (Q12809 whole entry): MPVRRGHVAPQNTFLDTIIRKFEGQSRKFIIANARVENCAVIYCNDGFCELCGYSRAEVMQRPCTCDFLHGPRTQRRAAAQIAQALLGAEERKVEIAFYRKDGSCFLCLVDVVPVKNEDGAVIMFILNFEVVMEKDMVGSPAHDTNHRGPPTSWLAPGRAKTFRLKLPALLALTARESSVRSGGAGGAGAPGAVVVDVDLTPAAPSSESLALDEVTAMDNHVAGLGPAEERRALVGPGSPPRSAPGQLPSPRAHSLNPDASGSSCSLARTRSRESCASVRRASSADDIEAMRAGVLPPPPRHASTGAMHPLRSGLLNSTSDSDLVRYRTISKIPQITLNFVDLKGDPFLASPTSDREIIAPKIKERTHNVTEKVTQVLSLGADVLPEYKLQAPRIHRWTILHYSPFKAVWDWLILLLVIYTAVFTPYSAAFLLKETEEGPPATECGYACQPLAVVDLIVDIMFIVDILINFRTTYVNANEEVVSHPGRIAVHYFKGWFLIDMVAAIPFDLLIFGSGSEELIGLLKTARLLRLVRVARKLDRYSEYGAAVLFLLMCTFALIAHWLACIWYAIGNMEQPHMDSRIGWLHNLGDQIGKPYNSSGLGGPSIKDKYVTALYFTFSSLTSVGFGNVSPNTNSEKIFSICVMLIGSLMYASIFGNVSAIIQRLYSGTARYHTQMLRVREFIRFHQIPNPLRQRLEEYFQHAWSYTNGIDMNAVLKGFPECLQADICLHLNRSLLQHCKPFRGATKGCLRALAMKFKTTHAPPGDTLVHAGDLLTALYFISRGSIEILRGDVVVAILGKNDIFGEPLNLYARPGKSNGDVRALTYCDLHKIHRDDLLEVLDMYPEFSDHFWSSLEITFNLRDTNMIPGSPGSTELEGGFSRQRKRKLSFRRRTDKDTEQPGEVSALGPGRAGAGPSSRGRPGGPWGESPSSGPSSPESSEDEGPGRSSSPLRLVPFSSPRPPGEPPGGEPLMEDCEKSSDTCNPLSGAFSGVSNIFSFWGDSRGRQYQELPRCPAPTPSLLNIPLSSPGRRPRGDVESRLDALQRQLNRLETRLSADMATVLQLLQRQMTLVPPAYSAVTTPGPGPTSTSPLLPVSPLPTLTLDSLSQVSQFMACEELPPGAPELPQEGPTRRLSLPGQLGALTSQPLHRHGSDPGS

## CC(C)(C)OC(=O)CCCN1CCc2c(sc(NC(=O)Nc3ccc(Cl)cc3)c2C(N)=O)C1 [compound 62]
hERG ion channel
  IC50: 3.84 µM

## CCN1CCc2c(sc(NC(=O)Nc3ccccc3)c2C(N)=O)C1.Cl [compound 14]
[1]
  protective activity (in words): inactive

## CCN1CCc2c(sc(NC=O)c2C(N)=O)C1.Cl [compound 29]
[1]
  protective activity (in words): no protective activity

## CCN1CCc2c(sc(NC(=O)NCCN3CCOCC3)c2C(N)=O)C1 [compound 13]
[1]
  protective activity (in words): inactive

## CN1[C@@H]2CC[C@H]1c1sc(NC(=O)Nc3ccc(Cl)cc3)c(C(N)=O)c1C2.Cl [compound 92]
[1]
  protective activity (in words): significantly reduced activity
  eudismic ratio (ER): 26.7

## (+)-2-[3-(4-Chlorophenyl)ureido]-9-methyl-5,6,7,8-tetrahydro-4H-5,8-epiminocyclohepta[b]thiophene-3-carboxamide [compound 90]
E. coli ATCC25922
  interference with neomycin minimal inhibitory concentration (MIC): no interference
[2]
  interference in MIC for tobramycin, amikacin, kanamycin and neomycin: no interference
M. tuberculosis
  interference in amikacin MIC: no interference
[1]; [6]
  EC50: 0.12 µM

## (+/−)-2-[3-(4-Chlorophenyl)ureido]-9-methyl-5,6,7,8-tetrahydro-4H-5,8-epiminocyclohepta[b]thiophene-3-carboxamide [compound 88]
[1]; [6]
  EC50: 0.36 µM

## CC(C)(C)OC(=O)CN1CCc2c(sc(NC(=O)Nc3ccc(Cl)cc3)c2C(N)=O)C1 [compound 60]
[1]
  protective activity (in words): completely suppressed

## CCN1CCc2c(sc(NC(=O)NCC3CCCO3)c2C(N)=O)C1 (stereo not drawn) [compound 12]
[1]
  protective activity (in words): inactive

## CCN1CCc2c(sc(NC(=O)c3ccccc3)c2C(N)=O)C1.Cl [compound 32]
[1]
  protective activity (in words): no protective activity

## CCN1CCc2c(sc(NC(=O)Nc3ccc(Cl)cc3)c2C(=O)OC)C1.Cl [compound 17]
[1]
  protective activity (in words): greatly reduces the activity

## CCN1CCc2c(sc(NC(=O)Nc3ccc(Cl)cc3)c2C(=O)N2CCOCC2)C1.Cl [compound 20]
[1]
  protective activity (in words): greatly reduces the activity

## CCN1CCc2c(sc(NC(=O)Nc3ccc(Cl)cc3)c2C(=O)O)C1.O=C(O)C(F)(F)F [compound 16]
[1]
  protective activity (in words): greatly reduces the activity

## C[N+]1(CC2CCCCC2)CCc2c(sc(NC(=O)Nc3ccc(Cl)cc3)c2C(N)=O)C1 (stereo not drawn) [compound 76]
hERG ion channel
  IC50: > 30 µM

## Cl.NC(=O)c1c(NC(=O)Nc2ccc(Cl)cc2)sc2c1C[C@H]1CC[C@@H]2N1 [compound 95]
[1]
  protective activity (in words): significantly reduced activity
  eudismic ratio (ER): 14.7

## CCN1CCc2c(sc(NC(=O)CN3CCCCC3)c2C(N)=O)C1 [compound 27]
[1]
  protective activity (in words): no protective activity

## NC(=O)c1c(NC(=O)Nc2ccc(Cl)cc2)sc2c1CCN(CC1CC1)C2 [compound 53]
hERG ion channel
  IC50: 2.67 µM

## Cl.NC(=O)c1c(NC(=O)Nc2ccc(Cl)cc2)sc2c1[C@H]1CC[C@@H](C2)N1 [compound 98]
[1]
  protective activity (in words): significantly reduced activity

## CC1(C)Cc2c(sc(NC(=O)Nc3ccc(Cl)cc3)c2C(N)=O)C(C)(C)N1.Cl [compound 87]
Air oxidation stability
  air oxidation: resistant to the oxidation pathway
CYP
  CYP stability or inhibition: no issues
[3]; in vitro ADME profiling
  metabolic stability: excellent
[4]
  IC50: > 300 µM

## CCN1CCc2c(sc(NC(=O)C3(c4ccc(Cl)cc4)CC3)c2C(N)=O)C1.Cl [compound 33]
[1]
  protective activity (in words): no protective activity

## CCN1CCc2c(sc(NC(=O)Nc3ccc(Cl)cc3)c2C#N)C1.Cl [compound 19]
[1]
  protective activity (in words): greatly reduces the activity

## CCN1CCc2c(ccc(NC(=O)Nc3ccc(Cl)cc3)c2C(N)=O)C1 [compound 38]
[1]
  protective activity (in words): no potency

## (−)-2-[3-(4-Chlorophenyl)ureido]-9-methyl-5,6,7,8-tetrahydro-4H-5,8-epiminocyclohepta[b]thiophene-3-carboxamide [compound 89]
[1]
  protective activity (in words): significantly reduced activity
[1]; [6]
  EC50: 2.25 µM

## CCN1CCc2c(sc(NC(=O)Nc3cscc3C(=O)OC)c2C(N)=O)C1 [compound 15]
[1]
  protective activity (in words): inactive

## NC(=O)c1c(NC(=O)Nc2ccc(Cl)cc2)sc2c1[C@@H]1CC[C@H](C2)N1 [compound 99]
[1]; Danio rerio, read-out: HC50, text
  EC50: 0.033 µM

## CCN1CCc2c(sc(NC(=O)NCc3cccc(Cl)c3)c2C(N)=O)C1.Cl [compound 11]
[1]
  protective activity (in words): inactive

## CCN1CCc2c(sc(NC(=O)[C@@H]3CCCN3)c2C(N)=O)C1 [compound 30]
[1]
  protective activity (in words): no protective activity

## 2-amino-4,5,6,7-tetrahydrothieno[2,3-c]pyridine-3-carboxamide [compound 28]
[1]
  protective activity (in words): inactive

## CCN1CCc2c(sc(NC(=O)C3(C(=O)Nc4ccc(Cl)cc4)CC3)c2C(N)=O)C1 [compound 31]
[1]
  protective activity (in words): lack of potency

## CCN1CCc2c(sc(NC(=O)Nc3ccc(Cl)cc3)c2C(=O)c2nc(C)no2)C1.Cl [compound 21]
[1]
  protective activity (in words): inactive

## CC(C)C[N+]1(C)CCc2c(sc(NC(=O)Nc3ccc(Cl)cc3)c2C(N)=O)C1 (stereo not drawn) [compound 71]
hERG ion channel
  IC50: 9.75 µM

## CCN1CCc2c(sc(NC(=O)Nc3ccc(Cl)cc3)c2C(=O)NC)C1.Cl [compound 18]
[1]
  protective activity (in words): greatly reduces the activity

## CC(C)(C)OC(=O)N1CCc2c(sc(NC(=O)Nc3ccc(Cl)cc3)c2C(N)=O)C1 [compound 59]
[1]
  protective activity (in words): completely suppressed

## NC(=O)c1c(NC(=O)Nc2ccc(Cl)cc2)sc2c1CCN(CC1CCC1)C2 [compound 54]
hERG ion channel
  IC50: 0.73 µM

## CCN1CCc2c(sc(NC(=O)Nc3ccc(Cl)cc3)c2C(N)=O)C1.Cl [compound 1, 2-[3-(4-Chlorophenyl)ureido]-6-ethyl-4,5,6,7-tetrahydrothieno[2,3-c]pyridine-3-carboxamide]
Aqueous solubility
  aqueous solubility (in words): adequate
E. coli ATCC25922
  interference with neomycin minimal bactericidal concentration (MBC): no interference
  interference with neomycin minimal inhibitory concentration (MIC): no interference
[5]; rat, plasma, iv, 25 mg/kg
  half-life: 1.7 h
[5]; rats, i.v., doses up to 25 mg/kg
  toxicity i.v.: non-toxic
Air oxidation stability
  air oxidation: gradually undergo partial air oxidation
CYP
  CYP stability or inhibition: no issues
[3]; early ADME characterization
  clearance profile (in words): acceptable
  membrane permeability (in words): adequate
  plasma protein binding (in words): reasonable
[4]
  IC50: > 300 µM
Sprague-Dawley rats; 8 and 16 kHz
  protection from kanamycin-induced hearing loss (ABR): completely prevented
Sprague-Dawley rats; 32 kHz
  protection from kanamycin-induced hearing loss (ABR): mostly resolved

## CCN1CCc2c(sc(NC(=O)Nc3ccc(Cl)cc3)c2C(=O)c2nnco2)C1.Cl [compound 22]
[1]
  protective activity (in words): inactive
